Measurements: ChEMBL document CHEMBL4007424, “Design and Synthesis of Enantiomerically Pure Decahydroquinoxalines as Potent and Selective κ-Opioid Receptor Agonists with Anti-Inflammatory Activity in Vivo” (J Med Chem, 2017)

Experiments:
[1] = target: T1, Kappa-type opioid receptor (Homo sapiens, UniProt P41145); assay: Agonist activity at recombinant human kappa-type opioid receptor expressed in HEK293 cells at 1 uM after 30 mins by [35S]GTPgammaS binding assay; assay type: functional, cell-based
T1 sequence (P41145 whole entry): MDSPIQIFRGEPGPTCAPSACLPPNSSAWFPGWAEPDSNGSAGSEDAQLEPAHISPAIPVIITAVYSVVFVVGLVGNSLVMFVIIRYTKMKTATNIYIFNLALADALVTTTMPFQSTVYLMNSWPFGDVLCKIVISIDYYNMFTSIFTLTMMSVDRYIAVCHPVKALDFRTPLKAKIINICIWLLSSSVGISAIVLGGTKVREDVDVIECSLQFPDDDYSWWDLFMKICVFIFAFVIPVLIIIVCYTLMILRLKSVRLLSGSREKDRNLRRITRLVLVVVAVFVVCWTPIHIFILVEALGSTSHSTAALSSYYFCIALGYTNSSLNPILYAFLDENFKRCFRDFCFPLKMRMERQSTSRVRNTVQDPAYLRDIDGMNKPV

[2] = Displacement of [3H]DPDPE from delta-type opioid receptor in guinea pig brain membranes after 120 mins by solid scintillation counting; assay type: cell membranes, Cavia porcellus, Membrane
[3] = target: Sigma non-opioid intracellular receptor 1 (Cavia porcellus) (UniProt Q60492); assay: Displacement of [3H]-(+)-pentazocine from sigma1-type […] receptor in guinea pig cortex membranes at 1 uM after 120 mins by solid scintillation counting; assay type: cell membranes
Sequence of Sigma non-opioid intracellular receptor 1 (Cavia porcellus) (Q60492 whole entry): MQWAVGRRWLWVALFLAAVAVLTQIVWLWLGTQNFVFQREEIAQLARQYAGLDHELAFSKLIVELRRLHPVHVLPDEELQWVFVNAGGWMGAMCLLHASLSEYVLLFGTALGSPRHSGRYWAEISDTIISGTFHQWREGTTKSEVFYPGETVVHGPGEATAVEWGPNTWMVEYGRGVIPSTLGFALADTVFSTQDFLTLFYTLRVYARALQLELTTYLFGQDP

[4] = target: Kappa-type opioid receptor (Cavia porcellus, UniProt P41144); assay: Displacement of [3H]U-69,593 from kappa-type opioid receptor in guinea pig brain membranes after 120 mins by solid scintillation counting; assay type: cell membranes, Membrane
Sequence of Kappa-type opioid receptor (Cavia porcellus, UniProt P41144) (P41144 whole entry): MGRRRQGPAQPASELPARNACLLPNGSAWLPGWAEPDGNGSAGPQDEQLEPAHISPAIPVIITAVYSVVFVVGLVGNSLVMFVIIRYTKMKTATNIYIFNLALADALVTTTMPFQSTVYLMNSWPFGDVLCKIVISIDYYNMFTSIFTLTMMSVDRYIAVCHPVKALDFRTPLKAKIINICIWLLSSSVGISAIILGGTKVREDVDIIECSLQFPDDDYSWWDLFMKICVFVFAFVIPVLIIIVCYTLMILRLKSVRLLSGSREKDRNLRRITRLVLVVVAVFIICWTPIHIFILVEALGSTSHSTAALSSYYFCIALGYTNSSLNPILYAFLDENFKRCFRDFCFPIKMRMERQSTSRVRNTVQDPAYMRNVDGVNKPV

Rattus norvegicus [5] = organism: Rattus norvegicus; assay: Displacement of [3H]-DTG from sigma 2 receptor in rat liver membranes at 1 uM after 120 mins by scintillation counting; assay type: cell membranes; settings: Membrane
Sus scrofa = organism: Sus scrofa; assay: Displacement of [3H]-(+)-MK 801 from PCP binding site of NMDA receptor in pig brain cortex membranes at 10 uM after 120 mins by solid scintillation counting; assay type: cell membranes
[6] = target: T1, Kappa-type opioid receptor; assay: Agonist activity at recombinant human kappa-type opioid receptor expressed in HEK293 cells after 30 mins by [35S]GTPgammaS binding assay; assay type: functional, cell-based
[7] = target: Mu-type opioid receptor (Cavia porcellus) (UniProt P97266); assay: Displacement of [3H]DAMGO from mu-type opioid receptor in guinea pig brain membranes at 1 uM after 120 mins by solid scintillation counting; assay type: cell membranes; settings: Membrane
Sequence of Mu-type opioid receptor (Cavia porcellus) (P97266 whole entry): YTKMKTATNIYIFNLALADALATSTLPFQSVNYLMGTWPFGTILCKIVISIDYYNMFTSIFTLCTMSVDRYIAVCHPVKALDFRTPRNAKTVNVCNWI

Mus musculus [8] = assay: Antiinflammatory activity in arachidonic acid-induced ear dermatitis ICR mouse model assessed as reduction in ear swelling at 0.3 mg administered twice tropically 30 mins prior and 15 mins after arachidonic acid addition measured 60 mins post arachidonic acid challenge relative to control; assay type: functional
Mus musculus [9] = assay: Antiinflammatory activity in arachidonic acid-induced ear dermatitis ICR mouse model assessed as reduction in ear swelling at 3 mg administered twice tropically 30 mins prior and 15 mins after arachidonic acid addition measured 60 mins post arachidonic acid challenge relative to control; assay type: functional
Mus musculus [10] = assay: Antiinflammatory activity in arachidonic acid-induced ear dermatitis ICR mouse model assessed as reduction in ear swelling at 0.1 mg administered twice tropically 30 mins prior and 15 mins after arachidonic acid addition measured 60 mins post arachidonic acid challenge relative to control; assay type: functional
Mus musculus [11] = assay: Antiinflammatory activity in arachidonic acid-induced ear dermatitis ICR mouse model assessed as reduction in ear swelling at 1 mg administered twice tropically 30 mins prior and 15 mins after arachidonic acid addition measured 60 mins post arachidonic acid challenge relative to control; assay type: functional
Mu-type opioid receptor = Mu-type opioid receptor (Cavia porcellus, UniProt P97266); assay: Displacement of [3H]DAMGO from mu-type opioid receptor in guinea pig brain membranes after 120 mins by solid scintillation counting; assay type: cell membranes, Membrane
Sequence of Mu-type opioid receptor (P97266 whole entry): as above

[12] = Ratio of drug level in brain to plasma in Wistar Han rat at 5 mg/kg, iv after 1 hr; assay type: ADME, organism-based; settings: read-out: BPR
[13] = Drug level in Wistar Han rat brain at 5 mg/kg, iv measured 1 hr post compound administration; assay type: ADME, organism-based; settings: read-out: Drug uptake
Rattus norvegicus [14] = assay: Toxicity in Wistar Han rat assessed as assessed as clinical signs changes at 5 mg/kg, iv after 1 hr; assay type: organism-based; settings: in vivo
[15] = Plasma concentration in Wistar Han rat at 5 mg/kg, iv measured 1 hr post compound administration; assay type: ADME, organism-based
[16] = Plasma concentration in Wistar Han rat at 5 mg/kg, iv measured 0.25 hrs post compound administration; assay type: ADME, organism-based

O=C(Cc1ccc(Cl)cc1)N1CCN(S(=O)(=O)Cc2ccon2)[C@H]2CCC[C@H](N3CC[C@H](O)C3)[C@H]21
Activity [1]: 103%
Ki [2]: 880 nM
inhibition [3]: 24%
Ki [4]: 0.98 nM
inhibition (Rattus norvegicus [5]): 0%
inhibition (Sus scrofa): 0%
EC50 [6]: 6.9 nM
inhibition [7]: 0%

COC(=O)N1CCN(C(=O)Cc2ccc(Cl)c(Cl)c2)[C@@H]2[C@@H](N3CC[C@H](O)C3)CCC[C@@H]21
Activity [1]: 113%
inhibition [3]: 0%
inhibition (Rattus norvegicus [5]): 12%
inhibition (Sus scrofa): 21%

CS(=O)(=O)N1CCN(C(=O)Cc2ccc(F)c(Cl)c2)[C@@H]2[C@@H](N3CC[C@H](O)C3)CCC[C@@H]21
inhibition (INH) (Mus musculus [8]): 43%
inhibition (INH) (Mus musculus [9]): 69%
Ki [2]: 575 nM
Ki [4]: 1.7 nM
EC50 [6]: 5.9 nM
inhibition (INH) (Mus musculus [10]): 22%
inhibition (INH) (Mus musculus [11]): 56%

CS(=O)(=O)N1CCN(C(=O)Cc2ccc(Cl)c(Cl)c2)[C@@H]2[C@@H](N3CCCC3)CCC[C@@H]21 [listing 1 of 2 here]
Activity [1]: 106%
inhibition [3]: 0%
inhibition (Rattus norvegicus [5]): 5%
inhibition (Sus scrofa): 0%

COC(=O)N1CCN(C(=O)Cc2ccc(F)c(Cl)c2)[C@@H]2[C@@H](N3CC[C@H](O)C3)CCC[C@@H]21
Ki (Mu-type opioid receptor): 1300 nM
inhibition (INH) (Mus musculus [8]): -4%
inhibition (INH) (Mus musculus [9]): 66%
Ki [2]: 61 nM
Ki [4]: 0.82 nM
EC50 [6]: 2.2 nM
inhibition (INH) (Mus musculus [10]): -12%
inhibition (INH) (Mus musculus [11]): 58%

COC(=O)N1CCN(C(=O)Cc2ccc(F)c(F)c2)[C@@H]2[C@@H](N3CC[C@H](O)C3)CCC[C@@H]21.Cl
Kp at 1 h [12]: 0.12
concentration at 1 h [13]: 46.4 ng/g
Activity (Rattus norvegicus [14]): Non-Toxic
concentration at 1 h [15]: 392 ng/mL
concentration at 0.25 h [16]: 1410 ng/mL

COC(=O)N1CCN(C(=O)Cc2ccc(Cl)cc2)[C@@H]2[C@@H](N3CC[C@H](O)C3)CCC[C@@H]21.Cl
Kp at 1 h [12]: 0.19
concentration at 1 h [13]: 70.6 ng/g
Activity (Rattus norvegicus [14]): Non-Toxic
concentration at 1 h [15]: 374 ng/mL
concentration at 0.25 h [16]: 1340 ng/mL

COC(=O)N1CCN(C(=O)Cc2cccc(Cl)c2)[C@@H]2[C@@H](N3CC[C@H](O)C3)CCC[C@@H]21
Ki (Mu-type opioid receptor): 512 nM
inhibition (INH) (Mus musculus [8]): 12%
inhibition (INH) (Mus musculus [9]): 55%
Ki [2]: 1120 nM
Ki [4]: 1.7 nM
EC50 [6]: 15 nM
inhibition (INH) (Mus musculus [10]): -15%
inhibition (INH) (Mus musculus [11]): 44%

COC(=O)N1CCN(C(=O)Cc2cccc(Cl)c2)[C@@H]2[C@@H](N3CC[C@H](O)C3)CCC[C@@H]21.Cl
Kp at 1 h [12]: 0.1
concentration at 1 h [13]: 41.2 ng/g
Activity (Rattus norvegicus [14]): Non-Toxic
concentration at 1 h [15]: 414 ng/mL
concentration at 0.25 h [16]: 1500 ng/mL

COC(=O)N1CCN(C(=O)Cc2ccc(Cl)c(Cl)c2)[C@@H]2[C@@H](N(C)C)CCC[C@@H]21
Ki [2]: 7.9 nM
Ki [4]: 0.16 nM
EC50 [6]: 1 nM

COC(=O)N1CCN(C(=O)Cc2ccc(Cl)c(F)c2)[C@@H]2[C@@H](N3CC[C@H](O)C3)CCC[C@@H]21.Cl
Kp at 1 h [12]: 0.12
concentration at 1 h [13]: 66.2 ng/g
Activity (Rattus norvegicus [14]): Non-Toxic
concentration at 1 h [15]: 546 ng/mL
concentration at 0.25 h [16]: 1350 ng/mL

COC(=O)N1CCN(C(=O)Cc2ccc(C(F)(F)F)c(Cl)c2)[C@@H]2[C@@H](N3CC[C@H](O)C3)CCC[C@@H]21 [listing 1 of 2 here]
Ki (Mu-type opioid receptor): 612 nM
Ki [2]: 394 nM
Ki [4]: 0.27 nM
EC50 [6]: 0.3 nM

CC(C)NC(=O)N1CCN(C(=O)Cc2ccc(Cl)c(Cl)c2)[C@@H]2[C@@H](N3CCCC3)CCC[C@@H]21 [listing 1 of 2 here]
Activity [1]: 100%
inhibition [3]: 0%
inhibition (Rattus norvegicus [5]): 0%
inhibition (Sus scrofa): 0%
inhibition [7]: 0%

CS(=O)(=O)N1CCN(C(=O)Cc2ccc(Cl)c(F)c2)[C@@H]2[C@@H](N3CC[C@H](O)C3)CCC[C@@H]21.Cl
Kp at 1 h [12]: 0.09
concentration at 1 h [13]: 37.5 ng/g
Activity (Rattus norvegicus [14]): Non-Toxic
concentration at 1 h [15]: 437 ng/mL
concentration at 0.25 h [16]: 938 ng/mL

O=C(Cc1ccc(Cl)c(Cl)c1)N1CCN[C@H]2CCC[C@H](N3CCCC3)[C@H]21
inhibition (Rattus norvegicus [5]): 0%
inhibition (Sus scrofa): 0%

CS(=O)(=O)N1CCN(C(=O)Cc2ccc(Cl)c(F)c2)[C@@H]2[C@@H](N3CC[C@H](O)C3)CCC[C@@H]21 [listing 1 of 2 here]
Ki (Mu-type opioid receptor): 308 nM
inhibition (INH) (Mus musculus [8]): 43%
inhibition (INH) (Mus musculus [9]): 71%
Ki [2]: 394 nM
Ki [4]: 2.1 nM
EC50 [6]: 8 nM
inhibition (INH) (Mus musculus [10]): 33%
inhibition (INH) (Mus musculus [11]): 46%

COC(=O)N1CCN(C(=O)Cc2ccc(C(F)(F)F)c(Cl)c2)[C@@H]2[C@@H](N3CC[C@H](O)C3)CCC[C@@H]21 [listing 2 of 2 here]
Activity [1]: 100%
inhibition [3]: 30%
inhibition (Rattus norvegicus [5]): 5%
inhibition (Sus scrofa): 0%

COC(=O)N1CCN(C(=O)Cc2ccc(Cl)cc2)[C@@H]2[C@@H](N3CC[C@H](O)C3)CCC[C@@H]21
Ki (Mu-type opioid receptor): 365 nM
inhibition (INH) (Mus musculus [8]): 27%
inhibition (INH) (Mus musculus [9]): 62%
Ki [2]: 451 nM
Ki [4]: 0.65 nM
EC50 [6]: 14 nM
inhibition (INH) (Mus musculus [10]): 24%
inhibition (INH) (Mus musculus [11]): 27%

CS(=O)(=O)N1CCN(C(=O)Cc2ccc(Cl)c(F)c2)[C@@H]2[C@@H](N3CC[C@H](O)C3)CCC[C@@H]21 [listing 2 of 2 here]
Activity [1]: 105%
inhibition [3]: 12%
inhibition (Rattus norvegicus [5]): 0%
inhibition (Sus scrofa): 16%

COC(=O)CN1CCN(C(=O)Cc2ccc(Cl)c(Cl)c2)[C@@H]2[C@@H](N3CCCC3)CCC[C@@H]21
Activity [1]: 111%
inhibition [3]: 0%
inhibition (Rattus norvegicus [5]): 0%
inhibition (Sus scrofa): 13%

CN(C)S(=O)(=O)N1CCN(C(=O)Cc2ccc(Cl)c(Cl)c2)[C@@H]2[C@@H](N3CCCC3)CCC[C@@H]21
Activity [1]: 105%
inhibition [3]: 0%
inhibition (Rattus norvegicus [5]): 0%

COC(=O)N1CCN(C(=O)Cc2ccc(Cl)c(Cl)c2)[C@@H]2[C@@H](N3CC[C@@H](O)C3)CCC[C@@H]21
Activity [1]: 109%
inhibition [3]: 0%
inhibition (Rattus norvegicus [5]): 13%
inhibition (Sus scrofa): 55%
inhibition [7]: 5%

COC(=O)N1CCN(C(=O)Cc2ccc(Cl)c(F)c2)[C@@H]2[C@@H](N3CC[C@H](O)C3)CCC[C@@H]21
Ki (Mu-type opioid receptor): 551 nM
inhibition (INH) (Mus musculus [8]): 37%
inhibition (INH) (Mus musculus [9]): 68%
Ki [2]: 250 nM
Ki [4]: 1.8 nM
EC50 [6]: 3.9 nM
inhibition (INH) (Mus musculus [10]): 2%
inhibition (INH) (Mus musculus [11]): 59%

CS(=O)(=O)N1CCN(C(=O)Cc2ccc(F)c(Cl)c2)[C@@H]2[C@@H](N3CC[C@H](O)C3)CCC[C@@H]21.Cl
Kp at 1 h [12]: 0.11
concentration at 1 h [13]: 38.7 ng/g
Activity (Rattus norvegicus [14]): Non-Toxic
concentration at 1 h [15]: 356 ng/mL
concentration at 0.25 h [16]: 1210 ng/mL

COC(=O)N1CCN(C(=O)Cc2ccc(F)c(Cl)c2)[C@@H]2[C@@H](N3CC[C@H](O)C3)CCC[C@@H]21.Cl
Kp at 1 h [12]: 0.09
concentration at 1 h [13]: 44 ng/g
Activity (Rattus norvegicus [14]): Non-Toxic
concentration at 1 h [15]: 465 ng/mL
concentration at 0.25 h [16]: 970 ng/mL

CS(=O)(=O)N1CCN(C(=O)Cc2ccc(Cl)c(Cl)c2)[C@@H]2[C@@H](N3CC[C@H](O)C3)CCC[C@@H]21.Cl
Kp at 1 h [12]: 0.02
concentration at 1 h [13]: 52.3 ng/g
Activity (Rattus norvegicus [14]): Non-Toxic
concentration at 1 h [15]: 2170 ng/mL
concentration at 0.25 h [16]: 4650 ng/mL

CS(=O)(=O)N1CCN(C(=O)Cc2ccc(Cl)c(Cl)c2)[C@@H]2[C@@H](N3CCCC3)CCC[C@@H]21 [listing 2 of 2 here]
Ki (Mu-type opioid receptor): 91 nM
Ki [2]: 1090 nM
Ki [4]: 0.31 nM
EC50 [6]: 1.5 nM

CC(C)NC(=O)N1CCN(C(=O)Cc2ccc(Cl)c(Cl)c2)[C@@H]2[C@@H](N3CCCC3)CCC[C@@H]21 [listing 2 of 2 here]
Ki [2]: 237 nM
Ki [4]: 2.5 nM
EC50 [6]: 4.5 nM
